PMC3556473, “Absorption, metabolism and excretion of [^14C]pomalidomide in humans following oral administration” (Cancer Chemotherapy and Pharmacology, 2012)
“And” between values parts separate entries of the source, which are not always exact repeats. Equal entries are not always repeated. Where two headings read alike, the source gives them in different places.

Legend:
[1] = Plasma pharmacokinetics of pomalidomide and its enantiomers (chiral LC–MS/MS) after a single oral 2 mg dose of [14C]pomalidomide; format: in vivo, human
Source text: This was an open-label, in-patient, single-dose study in eight non-smoking healthy male adult volunteers conducted in accordance with Good Clinical Practices (GCP) and in compliance with the Declaration of Helsinki. The protocol and consent form were reviewed and approved by the appropriate institutional review board, and all study participants gave written informed consent, before initiation of any study-related procedure. Male subjects were eligible based on standard inclusion/exclusion criteria and were excluded if they had exposure to excess radiation or participated in a study involving radioisotopes within the previous 12 months. Subjects entered the study center on the day prior to dosing and remained at the center for up to 15 days following dosing or until the total radioactivity recovered in excreta was ≥90 % or the radioactivity recovered in excreta per day on three consecutive days was ≤1 % of the administered radioactive dose.
(§1) Each subject was administered a single oral suspension of 2 mg (100 μCi) of [^14C]pomalidomide in seltzer water (75 mL) followed by administration of an additional 140 mL of distilled water. Subjects were fasted for 8 h prior to and 4 h following dose administration. The residual radioactivity in the dosing vials was determined, and for six of the eight subjects (subjects 1–4, 6 and 8), the administered dose (1.93–2.02 mg) was close to the target dose of 2 mg. For subjects 5 and 7, a significant amount of radioactivity remained in the dose vial, resulting in administered doses of 1.59 and 1.51 mg, respectively. Calculations for percent of dose recovered in excreta were based on the actual administered doses.
(§2) Blood was collected into pre-chilled K3EDTA tubes at pre-dose, 0.5, 1, 1.5, 2, 2.5, 3, 4, 6, 8, 10, 12, 24, 48, 72, 120 and 168 h following dose administration. Blood for radioactivity counting was transferred to a clean tube and stored at or below 4 °C until analyzed. Plasma was harvested by centrifugation from the remaining blood. A plasma sample for radioactivity counting was transferred to a fresh tube. Three plasma aliquots were transferred to tubes containing citric acid for metabolite profiling and for determination of pomalidomide enantiomer concentrations in plasma. Urine was collected pre-dose, 0–6, 6-12, 12–24 and every 24 h thereafter up to 216 h (9 days) following dose administration and were stabilized with one volume of pH 1.5 Sorensen’s citrate buffer (25 mM sodium citrate buffer adjusted to pH 1.5). During the 12- to 24-h collection interval for subject 4, approximately 550 mL of urine was inadvertently poured into the wrong collection urinal and the sample was lost. […] Individual fecal samples were collected pre-dose and for up to 9 days following dose administration, and homogenized using approximately three volumes by weight of pH 1.5 Sorensen’s citrate buffer. All urine, fecal homogenates and plasma samples were stored at or below −20 °C until analyzed.
Plasma concentrations of each pomalidomide enantiomer were determined using a chiral LC–MS/MS assay. The pomalidomide enantiomers and ^13C-labeled pomalidomide (internal standard; IS) were extracted from plasma (stabilized with citric acid) using liquid–liquid extraction with methyl tertiary butyl ether. After transfer to a new tube, the solvent was evaporated, and the samples were reconstituted and injected for LC–MS/MS analysis using a Chiral AGP (50 × 3.0 mm, 5 μm; Chrom Tech, Inc., Apple Valley, MN) analytical column. Positive ions were measured in the multiple reaction monitoring (MRM) mode using a Sciex API-4000 tandem mass spectrometer equipped with a Turbo Ion Spray source. For the QC samples, the accuracy ranged from 91.0 to 106.9 %. For study samples, the amount of [^14C]-labeled material was accounted for when calculating the concentration of enantiomers in plasma using an appropriate correction factor. […]

[2] = Pharmacokinetics of total radioactivity in whole blood and plasma after a single oral 2 mg dose of [14C]pomalidomide; format: in vivo, human
Protocol: as §1, §2
(§3) All radioactivity determinations were performed using Tri-Carb model 2900TR liquid scintillation counter (PerkinElmer, Wellesley, MA). For plasma, urine and residual dose vial analysis, duplicate samples were mixed with Ultima Gold XR scintillation cocktail and directly analyzed by liquid scintillation counting. For fecal homogenate and blood samples, duplicate aliquots were weighed, allowed to dry and combusted using a PerkinElmer model 307 sample oxidizer. The resultant [^14C]CO2 was trapped in Carbosorb (PerkinElmer) in combination with Permafluor and assayed by liquid scintillation counting. For all matrices, any sample that was less than two times the background dpm was assigned a value of zero. Using these criteria, the lower limits of quantification in plasma, blood, urine and feces were 0.894 ng [^14C]pomalidomide equivalent/mL (ngEq/mL), 0.939 ngEq/g, 0.871 ngEq/mL and 2.96 ngEq/g, respectively.
Standard pharmacokinetic parameters were estimated from the pomalidomide (as the sum of the enantiomer concentrations at each time point) and enantiomer concentration versus time profiles or the blood and plasma radioactive concentration equivalents versus time profiles using established non-compartmental methods with WinNonlin (Version 5.2, Pharsight Corp., CA). Pre-dose samples that were below the limit of quantification (BLQ) or missing were assigned a numerical value of zero for the calculation of AUC. All post-dose BLQ were treated as missing in the PK analysis.
Total radioactivity in whole blood and plasma was converted to nanogram equivalent (ngEq) concentrations (ngEq/g for whole blood or ngEq/mL for plasma) based on the actual specific activity of the dose.

[3] = Excretion of radioactivity in urine and feces (mass balance); format: in vivo, human
Protocol: as §1, §2, §3
The amount of total radioactivity (ngEq) in urine and feces was determined by multiplying the volume or weight of the samples by the radioactivity concentration. The dose recovered at each time point was determined by total radioactivity in the sample, divided by the total dose administered, multiplied by 100 %. For data BLQ values, a value of zero was assigned for calculations of means.

[4] = design: method as in earlier work; settings: ref 2 and unpublished data, cited from earlier work
[5] = plasma, as [14C]pomalidomide equivalents, mean ± SD
[6] = whole blood, as [14C]pomalidomide equivalents, mean ± SD
[7] = percentage of dose, over 216 h, listed as [^14C]pomalidomide

Cmax ([1]; human, healthy male subjects, mean ± SD (n = 8)): 0.013 ± 0.0039 µg/mL
AUC(0-inf) ([1]; male, human, mean ± SD (n = 8)): 0.189 ± 0.052 µg·h/mL
AUC(0-t) ([1]; male, human, mean ± SD (n = 8)): 0.137 ± 0.067 µg·h/mL
half-life ([1]; male, human, po, 2 mg, mean ± SD (n = 8), read-out: t ½ (converted)): 11.2 h
Tmax ([1]; male, human, po, 2 mg, median (min–max)): < 3.5 h
t ½ ([1]; mean ± SD (n = 8)): 8.9 ± 3.4 h
T max ([1]; median (min–max)): 3.0 (2.0–6.0) h
AUC0−t, plasma total radioactivity [2, 5]: 0.189 ± 0.088 µg·h/mL
AUC0−∞, plasma total radioactivity [2, 5]: 0.225 ± 0.094 µg·h/mL
AUC0–24, TRA (total radioactivity) ([2]; plasma, geometric mean (%CV)): 194 (27.6) ngEq*h/mL
AUC0−∞, TRA (total radioactivity) ([2]; plasma, geometric mean (%CV)): 245 (37.9) ngEq*h/mL
C max, TRA (total radioactivity) ([2]; plasma, geometric mean (%CV)): 14.8 (17.8) ngEq/mL
t ½, TRA (total radioactivity) ([2]; plasma, geometric mean (%CV)): 10.3 (23.5) h
t ½, plasma total radioactivity ([2]; plasma, mean ± SD, listed as [^14C]pomalidomide): 11.2 ± 2.5 h
T max, plasma total radioactivity ([2]; plasma, median (min–max), listed as [^14C]pomalidomide): 3.25 (1.0–4.0) h
T max, TRA (total radioactivity) ([2]; plasma, median and range): 2.5 (1.0–4.0) h
Radioactivity blood to plasma ratio, AUC0−t ([2]; single oral 2 mg): 0.84
Radioactivity blood to plasma ratio, AUC0−∞ ([2]; single oral 2 mg): 0.87
Radioactivity blood to plasma ratio, C max ([2]; single oral 2 mg): 0.80
AUC0−t, whole blood total radioactivity [2, 6]: 0.225 ± 0.099 µg·h/mL
AUC0−∞, whole blood total radioactivity [2, 6]: 0.26 ± 0.102 µg·h/mL
t ½, whole blood total radioactivity ([2]; whole blood, mean ± SD): 10.2 ± 1.9 h
T max, whole blood total radioactivity ([2]; whole blood, median (min–max)): 2.5 (1.0–4.0) h
mean total recovery of radioactivity (urine + feces) ([3]; % of radioactive dose, collection over 216 h (9 days), eight subjects, listed as [^14C]pomalidomide): 88% and 88.3%
oral absorption ([3]; inferred from urinary radioactivity and unchanged drug in feces): > 70%
radioactivity excreted in feces, mean [3, 7]: 15% and 15.5 ± 2.5%
radioactivity excreted in urine, mean [3, 7]: 73% and 72.8 ± 16.7%
radioactivity recovered within the first 48 h after dose administration ([3]; urine + feces): > 80%
Compound: Nc1cccc2c1C(=O)N(C1CCC(=O)NC1=O)C2=O (racemic) [Pomalidomide, (RS)-4-amino-2-(2,6-dioxo-piperidin-3-yl)-isoindoline-1,3-dione]
C max, plasma total radioactivity ([2]; plasma, single oral 2 mg, mean ± SD): 12.1 ± 2.2 ng [^14C]pomalidomide equivalent/mL
C max, whole blood total radioactivity ([2]; whole blood, single oral 2 mg, mean ± SD): 15.1 ± 2.7 ng [^14C]pomalidomide equivalent/mL
mean C max and AUC accumulation ratios ([4]; once-daily administrations, MM patients): < 2
half-life ([4]; relapsed or refractory MM patients): 6.5 to 8.0 h
